Results: ChEMBL document CHEMBL4507290 (2021)

Key:
[1] = target: Ribosomal protein S6 kinase alpha-4 (Homo sapiens) (UniProt O75676); settings: Compound concentration 1000.0 nM
[2] = target: Mitogen-activated protein kinase kinase kinase kinase 1 (Homo sapiens) (UniProt Q92918); settings: Compound concentration 1000.0 nM
[3] = target: Sodium-dependent serotonin transporter (Homo sapiens) (UniProt P31645); settings: Compound concentration 10.0 uM
[4] = target: Serine/threonine-protein kinase RIO2 (Homo sapiens) (UniProt Q9BVS4); settings: Compound concentration 1000.0 nM
[5] = target: Activin receptor type-2B (Homo sapiens) (UniProt Q13705); settings: Compound concentration 1000.0 nM
[6] = target: Macrophage-stimulating protein receptor (Homo sapiens) (UniProt Q04912); settings: Compound concentration 1000.0 nM
[7] = target: Serine/threonine-protein kinase 38-like (Homo sapiens) (UniProt Q9Y2H1); settings: Compound concentration 1000.0 nM
[8] = target: Rho-associated protein kinase 1 (Homo sapiens) (UniProt Q13464); settings: Compound concentration 1000.0 nM
[9] = target: Tyrosine-protein kinase HCK (Homo sapiens) (UniProt P08631); settings: Compound concentration 1000.0 nM
[10] = tested on: Epidermal growth factor receptor (Homo sapiens), P00533 [UNDEFINED MUTATION]; settings: Compound concentration 1000.0 nM
[11] = target: Vascular endothelial growth factor receptor 3 (Homo sapiens) (UniProt P35916); settings: Compound concentration 1000.0 nM
[12] = target: Tyrosine-protein kinase JAK3 (Homo sapiens) (UniProt P52333); settings: Compound concentration 1000.0 nM
[13] = target: Phosphatidylinositol 4-kinase beta (Homo sapiens) (UniProt Q9UBF8); settings: Compound concentration 1000.0 nM
[14] = target: Muscle, skeletal receptor tyrosine-protein kinase (Homo sapiens) (UniProt O15146); settings: Compound concentration 1000.0 nM
[15] = tested on: Tyrosine-protein kinase ABL1 (Homo sapiens), P00519 [T315I]; settings: Compound concentration 1000.0 nM
[16] = target: Myosin-IIIb (Homo sapiens) (UniProt Q8WXR4); settings: Compound concentration 1000.0 nM
[17] = target: Phosphatidylinositol 4-phosphate 5-kinase type-1 gamma (Homo sapiens) (UniProt O60331); settings: Compound concentration 1000.0 nM
[18] = target: Cyclin-dependent kinase 4 (Homo sapiens) (UniProt P11802); settings: Compound concentration 1000.0 nM
[19] = target: D(4) dopamine receptor (Homo sapiens) (UniProt P21917); settings: Compound concentration 10.0 uM
[20] = target: Activin receptor type-1-like (Homo sapiens) (UniProt P37023); settings: Compound concentration 1000.0 nM
[21] = target: Receptor tyrosine-protein kinase erbB-2 (Homo sapiens) (UniProt P04626); settings: Compound concentration 1000.0 nM
[22] = target: Serine/threonine-protein kinase 10 (Homo sapiens) (UniProt O94804); settings: Compound concentration 1000.0 nM
[23] = target: Dual specificity tyrosine-phosphorylation-regulated kinase 1A (Homo sapiens) (UniProt Q13627); settings: Compound concentration 1000.0 nM
[24] = target: Macrophage colony-stimulating factor 1 receptor (Homo sapiens) (UniProt P07333); settings: Compound concentration 1000.0 nM
[25] = target: Casein kinase I isoform delta (Homo sapiens) (UniProt P48730); settings: Compound concentration 1000.0 nM
[26] = target: Calcium/calmodulin-dependent protein kinase type 1B (Homo sapiens) (UniProt Q6P2M8); settings: Compound concentration 1000.0 nM
[27] = target: Muscarinic acetylcholine receptor M4 (Homo sapiens) (UniProt P08173); settings: Compound concentration 10.0 uM
[28] = target: Serine/threonine-protein kinase Nek1 (Homo sapiens) (UniProt Q96PY6); settings: Compound concentration 1000.0 nM
[29] = target: Ephrin type-B receptor 1 (Homo sapiens) (UniProt P54762); settings: Compound concentration 1000.0 nM
[30] = target: Glycogen synthase kinase-3 alpha (Homo sapiens) (UniProt P49840); settings: Compound concentration 1000.0 nM
[31] = target: Mitogen-activated protein kinase 9 (Homo sapiens) (UniProt P45984); settings: Compound concentration 1000.0 nM
[32] = tested on: Epidermal growth factor receptor (Homo sapiens), P00533 [T790M]; settings: Compound concentration 1000.0 nM
[33] = target: Mitogen-activated protein kinase kinase kinase 7 (Homo sapiens) (UniProt O43318); settings: Compound concentration 1000.0 nM
[34] = target: Serine/threonine-protein kinase TAO1 (Homo sapiens) (UniProt Q7L7X3); settings: Compound concentration 1000.0 nM
[35] = target: Serine/threonine-protein kinase WNK1 (Homo sapiens) (UniProt Q9H4A3); settings: Compound concentration 1000.0 nM
[36] = tested on: Epidermal growth factor receptor (Homo sapiens), P00533 [L861Q]; settings: Compound concentration 1000.0 nM
[37] = tested on: Phosphatidylinositol 4,5-bisphosphate 3-kinase catalytic subunit alpha isoform (Homo sapiens), P42336 [M1043I]; settings: Compound concentration 1000.0 nM
[38] = target: cAMP-dependent protein kinase catalytic subunit PRKX (Homo sapiens) (UniProt P51817); settings: Compound concentration 1000.0 nM
[39] = tested on: Phosphatidylinositol 4,5-bisphosphate 3-kinase catalytic subunit alpha isoform (Homo sapiens), P42336 [C420R]; settings: Compound concentration 1000.0 nM
[40] = tested on: eIF-2-alpha kinase GCN2 (Homo sapiens), Q9P2K8 [S808G]; settings: Compound concentration 1000.0 nM
[41] = target: Dual specificity protein kinase TTK (Homo sapiens) (UniProt P33981); settings: Compound concentration 1000.0 nM
[42] = target: Serine/threonine-protein kinase PAK 1 (Homo sapiens) (UniProt Q13153); settings: Compound concentration 1000.0 nM
[43] = target: 5-hydroxytryptamine receptor 1E (Homo sapiens) (UniProt P28566); settings: Compound concentration 10.0 uM
[44] = target: Ribosomal protein S6 kinase beta-1 (Homo sapiens) (UniProt P23443); settings: Compound concentration 1000.0 nM
[45] = target: Activated CDC42 kinase 1 (Homo sapiens) (UniProt Q07912); settings: Compound concentration 1000.0 nM

Sequence of Phosphatidylinositol 4,5-bisphosphate 3-kinase catalytic subunit alpha isoform (Homo sapiens), P42336 [C420R] (P42336 whole entry C420R, canonical isoform): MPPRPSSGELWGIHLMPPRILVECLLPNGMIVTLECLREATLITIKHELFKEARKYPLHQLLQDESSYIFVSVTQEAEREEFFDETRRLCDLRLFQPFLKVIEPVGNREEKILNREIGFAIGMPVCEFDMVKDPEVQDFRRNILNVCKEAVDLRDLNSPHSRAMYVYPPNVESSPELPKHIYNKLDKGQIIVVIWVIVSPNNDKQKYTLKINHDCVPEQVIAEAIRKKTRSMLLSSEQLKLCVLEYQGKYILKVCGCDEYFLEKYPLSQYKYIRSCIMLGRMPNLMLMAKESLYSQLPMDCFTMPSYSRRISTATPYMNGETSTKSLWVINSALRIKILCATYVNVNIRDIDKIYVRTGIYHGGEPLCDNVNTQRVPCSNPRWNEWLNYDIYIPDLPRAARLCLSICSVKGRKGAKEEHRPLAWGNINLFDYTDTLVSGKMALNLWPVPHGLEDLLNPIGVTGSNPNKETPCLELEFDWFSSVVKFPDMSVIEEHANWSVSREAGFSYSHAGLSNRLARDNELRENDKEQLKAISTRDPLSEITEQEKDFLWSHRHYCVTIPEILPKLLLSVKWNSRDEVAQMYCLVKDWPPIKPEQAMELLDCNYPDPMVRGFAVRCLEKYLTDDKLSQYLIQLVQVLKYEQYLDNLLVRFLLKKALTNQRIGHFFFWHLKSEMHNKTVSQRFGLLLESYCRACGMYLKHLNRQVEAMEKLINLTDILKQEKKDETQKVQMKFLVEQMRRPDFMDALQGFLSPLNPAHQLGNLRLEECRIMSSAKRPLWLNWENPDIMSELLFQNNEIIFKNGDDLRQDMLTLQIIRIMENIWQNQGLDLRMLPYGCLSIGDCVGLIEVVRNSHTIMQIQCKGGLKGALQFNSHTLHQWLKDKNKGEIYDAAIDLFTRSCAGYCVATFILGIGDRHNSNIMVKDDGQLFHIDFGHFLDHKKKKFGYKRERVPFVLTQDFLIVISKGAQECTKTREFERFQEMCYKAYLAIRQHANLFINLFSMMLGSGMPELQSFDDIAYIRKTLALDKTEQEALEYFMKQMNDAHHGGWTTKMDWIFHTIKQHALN
Sequence of D(4) dopamine receptor (Homo sapiens) (P21917 whole entry): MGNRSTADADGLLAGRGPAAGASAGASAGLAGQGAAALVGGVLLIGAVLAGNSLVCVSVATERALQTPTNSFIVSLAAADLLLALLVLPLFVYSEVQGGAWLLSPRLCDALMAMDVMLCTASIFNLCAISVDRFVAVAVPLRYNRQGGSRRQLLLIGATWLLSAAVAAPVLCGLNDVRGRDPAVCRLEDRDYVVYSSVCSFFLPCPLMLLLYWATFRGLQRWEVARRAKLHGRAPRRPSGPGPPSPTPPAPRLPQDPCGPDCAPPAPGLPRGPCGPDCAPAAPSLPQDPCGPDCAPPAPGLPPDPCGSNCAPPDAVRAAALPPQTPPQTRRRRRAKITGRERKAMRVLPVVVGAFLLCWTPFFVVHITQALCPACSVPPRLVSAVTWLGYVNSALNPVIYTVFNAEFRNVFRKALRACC
Sequence of Rho-associated protein kinase 1 (Homo sapiens) (Q13464 2-1354 limits assumed): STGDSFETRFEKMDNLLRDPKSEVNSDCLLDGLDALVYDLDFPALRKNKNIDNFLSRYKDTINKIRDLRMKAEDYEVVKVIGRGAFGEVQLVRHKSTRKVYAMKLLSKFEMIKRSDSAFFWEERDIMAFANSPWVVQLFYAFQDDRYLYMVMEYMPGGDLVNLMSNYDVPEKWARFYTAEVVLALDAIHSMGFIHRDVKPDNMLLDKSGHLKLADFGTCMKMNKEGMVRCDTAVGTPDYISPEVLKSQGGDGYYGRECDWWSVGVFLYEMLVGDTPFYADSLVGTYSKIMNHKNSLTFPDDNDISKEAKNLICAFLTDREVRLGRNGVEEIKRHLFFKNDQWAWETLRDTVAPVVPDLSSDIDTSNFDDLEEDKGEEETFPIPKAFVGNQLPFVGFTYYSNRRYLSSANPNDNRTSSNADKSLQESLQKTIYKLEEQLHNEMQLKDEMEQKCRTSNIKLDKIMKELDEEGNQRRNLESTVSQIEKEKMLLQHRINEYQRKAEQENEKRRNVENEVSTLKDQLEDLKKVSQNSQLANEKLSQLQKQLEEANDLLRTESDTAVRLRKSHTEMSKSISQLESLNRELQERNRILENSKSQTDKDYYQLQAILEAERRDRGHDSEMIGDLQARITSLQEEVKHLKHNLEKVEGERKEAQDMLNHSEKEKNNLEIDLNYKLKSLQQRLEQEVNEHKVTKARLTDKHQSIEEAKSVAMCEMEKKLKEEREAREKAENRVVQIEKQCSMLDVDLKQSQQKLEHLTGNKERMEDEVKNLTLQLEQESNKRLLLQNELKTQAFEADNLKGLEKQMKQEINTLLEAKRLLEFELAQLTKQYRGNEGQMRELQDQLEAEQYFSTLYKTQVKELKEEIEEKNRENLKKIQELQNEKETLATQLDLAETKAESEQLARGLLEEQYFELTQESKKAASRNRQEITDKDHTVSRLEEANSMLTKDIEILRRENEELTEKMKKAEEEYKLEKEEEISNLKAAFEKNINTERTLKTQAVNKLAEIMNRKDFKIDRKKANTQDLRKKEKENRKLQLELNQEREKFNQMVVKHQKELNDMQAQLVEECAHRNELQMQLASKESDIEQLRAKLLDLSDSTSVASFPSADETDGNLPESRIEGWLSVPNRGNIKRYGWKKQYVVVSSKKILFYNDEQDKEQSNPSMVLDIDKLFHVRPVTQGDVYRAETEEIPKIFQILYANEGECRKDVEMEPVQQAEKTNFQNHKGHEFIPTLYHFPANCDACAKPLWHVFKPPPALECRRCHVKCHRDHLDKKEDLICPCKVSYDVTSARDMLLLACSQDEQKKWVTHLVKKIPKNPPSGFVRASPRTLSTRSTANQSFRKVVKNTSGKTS
Sequence of Serine/threonine-protein kinase Nek1 (Homo sapiens) (Q96PY6 whole entry): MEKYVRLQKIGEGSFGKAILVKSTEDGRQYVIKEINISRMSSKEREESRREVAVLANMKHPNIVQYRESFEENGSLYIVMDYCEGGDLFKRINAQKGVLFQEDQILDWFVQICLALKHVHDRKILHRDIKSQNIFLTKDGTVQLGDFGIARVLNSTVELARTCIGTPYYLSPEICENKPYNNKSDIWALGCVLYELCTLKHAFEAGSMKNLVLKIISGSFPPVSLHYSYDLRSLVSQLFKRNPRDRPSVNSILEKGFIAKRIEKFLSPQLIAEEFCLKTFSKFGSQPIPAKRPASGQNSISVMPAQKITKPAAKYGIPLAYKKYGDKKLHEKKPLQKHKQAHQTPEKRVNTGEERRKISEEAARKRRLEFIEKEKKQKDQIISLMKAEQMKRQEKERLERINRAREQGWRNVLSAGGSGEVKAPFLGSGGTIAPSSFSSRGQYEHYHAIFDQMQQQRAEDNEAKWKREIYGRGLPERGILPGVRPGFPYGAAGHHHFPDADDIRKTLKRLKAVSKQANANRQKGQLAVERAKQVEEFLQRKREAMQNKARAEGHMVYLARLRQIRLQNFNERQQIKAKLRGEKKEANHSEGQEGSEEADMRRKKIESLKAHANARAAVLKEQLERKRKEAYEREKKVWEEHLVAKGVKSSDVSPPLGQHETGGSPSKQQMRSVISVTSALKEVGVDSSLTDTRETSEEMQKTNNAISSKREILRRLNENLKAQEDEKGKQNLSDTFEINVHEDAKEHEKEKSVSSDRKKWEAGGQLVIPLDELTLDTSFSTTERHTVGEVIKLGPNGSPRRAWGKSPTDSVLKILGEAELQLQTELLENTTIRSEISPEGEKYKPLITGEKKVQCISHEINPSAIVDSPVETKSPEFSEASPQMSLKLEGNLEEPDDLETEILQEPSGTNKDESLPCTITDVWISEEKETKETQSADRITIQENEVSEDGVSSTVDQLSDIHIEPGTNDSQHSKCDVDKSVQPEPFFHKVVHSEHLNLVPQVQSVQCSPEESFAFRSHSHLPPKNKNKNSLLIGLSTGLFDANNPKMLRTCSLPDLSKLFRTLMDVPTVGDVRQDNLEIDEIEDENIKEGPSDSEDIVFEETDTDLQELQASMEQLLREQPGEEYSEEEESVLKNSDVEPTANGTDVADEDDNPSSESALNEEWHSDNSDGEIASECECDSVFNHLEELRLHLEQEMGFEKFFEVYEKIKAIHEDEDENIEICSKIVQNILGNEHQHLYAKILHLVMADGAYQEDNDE
Sequence of Sodium-dependent serotonin transporter (Homo sapiens) (P31645 whole entry, looked up): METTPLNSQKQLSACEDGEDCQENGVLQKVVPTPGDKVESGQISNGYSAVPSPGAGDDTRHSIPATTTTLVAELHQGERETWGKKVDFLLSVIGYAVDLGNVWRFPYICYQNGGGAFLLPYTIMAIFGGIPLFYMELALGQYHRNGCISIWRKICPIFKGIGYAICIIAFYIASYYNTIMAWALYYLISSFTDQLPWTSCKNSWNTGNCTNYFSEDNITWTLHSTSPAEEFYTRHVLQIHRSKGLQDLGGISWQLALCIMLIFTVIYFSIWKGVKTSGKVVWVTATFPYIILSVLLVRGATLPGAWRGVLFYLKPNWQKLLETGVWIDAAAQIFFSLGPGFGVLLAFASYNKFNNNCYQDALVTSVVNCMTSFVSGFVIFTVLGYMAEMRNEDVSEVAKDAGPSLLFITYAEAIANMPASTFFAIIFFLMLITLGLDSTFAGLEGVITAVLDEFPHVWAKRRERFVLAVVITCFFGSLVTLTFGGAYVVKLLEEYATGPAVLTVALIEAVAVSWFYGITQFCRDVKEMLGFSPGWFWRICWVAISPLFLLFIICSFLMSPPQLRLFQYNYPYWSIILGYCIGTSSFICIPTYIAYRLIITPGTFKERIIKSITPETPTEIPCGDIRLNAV
Sequence of Cyclin-dependent kinase 4 (Homo sapiens) (P11802 whole entry): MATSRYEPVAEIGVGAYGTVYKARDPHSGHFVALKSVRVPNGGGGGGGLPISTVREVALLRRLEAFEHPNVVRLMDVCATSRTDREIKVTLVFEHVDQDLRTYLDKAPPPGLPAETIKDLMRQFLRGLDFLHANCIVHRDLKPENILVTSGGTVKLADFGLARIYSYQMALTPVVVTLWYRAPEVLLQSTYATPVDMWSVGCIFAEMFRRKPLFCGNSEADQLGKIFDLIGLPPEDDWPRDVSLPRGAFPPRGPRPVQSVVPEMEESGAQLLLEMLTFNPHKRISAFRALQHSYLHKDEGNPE

Q: What does the source list for CN([C@@H]1CCc2c(CC(=O)O)c3cc(S(C)(=O)=O)ccc3n2C1)S(=O)(=O)c1ccc(F)cc1?
A: residual activity [1]: 97%; residual activity [2]: 100%; inhibition [3]: 5.16%; residual activity [4]: 96%; residual activity [5]: 100%; residual activity [6]: 94%; residual activity [7]: 88%; residual activity [8]: 6%; residual activity [9]: 87%; residual activity [10]: 100%; residual activity [11]: 100%; residual activity [12]: 100%; residual activity [13]: 98%; residual activity [14]: 100%; residual activity [15]: 93%; residual activity [16]: 100%; residual activity [17]: 100%; residual activity [18]: 90%; inhibition [19]: 2.8%; residual activity [20]: 100%; residual activity [21]: 100%; residual activity [22]: 100%; residual activity [23]: 81%; residual activity [24]: 93%; residual activity [25]: 100%; residual activity [26]: 90%; inhibition [27]: -1.13%; residual activity [28]: 100%; residual activity [29]: 100%; residual activity [30]: 100%; residual activity [31]: 100%; residual activity [32]: 100%; residual activity [33]: 100%; residual activity [34]: 95%; residual activity [35]: 95%; residual activity [36]: 100%; residual activity [37]: 98%; residual activity [38]: 100%; residual activity [39]: 98%; residual activity [40]: 71%; residual activity [41]: 100%; residual activity [42]: 95%; inhibition [43]: 5.5%; residual activity [44]: 100%; residual activity [45]: 92%

Q: Which results are given for CN([C@@H]1CCc2c(CC(=O)O)c3ccccc3n2C1)S(=O)(=O)c1ccc(F)cc1 [MK-7246]?
A: residual activity [1]: 96%; residual activity [2]: 100%; inhibition [3]: 9.29%; residual activity [4]: 90%; residual activity [5]: 98%; residual activity [6]: 93%; residual activity [7]: 83%; residual activity [8]: 34%; residual activity [9]: 95%; residual activity [10]: 100%; residual activity [11]: 95%; residual activity [12]: 98%; residual activity [13]: 100%; residual activity [14]: 97%; residual activity [15]: 98%; residual activity [16]: 100%; residual activity [17]: 100%; residual activity [18]: 87%; inhibition [19]: 3.14%; residual activity [20]: 88%; residual activity [21]: 100%; residual activity [22]: 100%; residual activity [23]: 69%; residual activity [24]: 100%; residual activity [25]: 100%; residual activity [26]: 87%; inhibition [27]: 24.4%; residual activity [28]: 100%; residual activity [29]: 100%; residual activity [30]: 90%; residual activity [31]: 98%; residual activity [32]: 100%; residual activity [33]: 100%; residual activity [34]: 93%; residual activity [35]: 96%; residual activity [36]: 100%; residual activity [37]: 100%; residual activity [38]: 100%; residual activity [39]: 100%; residual activity [40]: 78%; residual activity [41]: 100%; residual activity [42]: 96%; inhibition [43]: 35.8%; residual activity [44]: 100%; residual activity [45]: 100%
